Data reported in ChEMBL document CHEMBL4196106, “From Naproxen Repurposing to Naproxen Analogues and Their Antiviral Activity against Influenza A Virus” (J Med Chem, 2018).

Key:
[1] = test system: Influenza A virus; assay: Antiviral activity against oseltamivir-resistant Influenza A virus (A/Puerto Rico/8/1934(H1N1)) infected in MDCK cells at MOI of 10^-3 assessed as decrease in viral load after 18 hrs by immunofluorescence analysis; assay type: functional, organism-based
[2] = Selectivity index, ratio of CC50 for MDCK cells to IC50 for oseltamivir-resistant Influenza A virus (A/Puerto Rico/8/1934(H1N1)) infected in MDCK cells at MOI of 10^-3 after 18 hrs; assay type: toxicity, cell-based; settings: dog, read-out: Ratio CC50/IC50

Compound	IC50 [1]	selectivity ratio at 18 h [2]
COc1ccc2cc(-c3c(C(=O)[O-])ccc(Oc4ccc(N)cc4)c3C(=O)[O-])ccc2c1.[Na+].[Na+]	1 µM	12000
COc1ccc2cc(-c3c(C(=O)[O-])cccc3C(=O)[O-])ccc2c1.[Na+].[Na+]	8.8 µM	1480
COc1ccc2cc(-c3c(C(=O)O)cc(Oc4ccc(N)cc4)cc3C(=O)O)ccc2c1	8 µM	1620
